Experimental data: the supplement of paper PMC10307832

How the values were obtained:
Assay in all cases: relative viability (nuclei count vs DMSO), 5 days (fraction); higher = more cells survive
Decitabine + Olaparib = compound: Nc1ncn([C@H]2C[C@H](O)[C@@H](CO)O2)c(=O)n1 [Decitabine] + O=C(c1cc(Cc2n[nH]c(=O)c3ccccc23)ccc1F)N1CCN(C(=O)C2CC2)CC1 [Olaparib] (partner 8 µM)
In short: (§1)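 After 5 days of treatment, lung cancer cells in 1536-well plates were fixed and stained in a single step (final 0.05% Triton X-100, 1% formaldehyde, 1 ug/ml Hoechst) and their nuclei counted on 4× images. Treatment had been applied by pin tool the day after seeding as one drug alone or as a fixed anchor-drug dose with five library-drug doses (not always all listed) in √10 steps. Relative viability is the nuclei count of treated wells divided by that of vehicle wells, and values are medians of duplicate plates.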

Cediranib + Navitoclax = compound: COc1cc2c(Oc3ccc4[nH]c(C)cc4c3F)ncnc2cc1OCCCN1CCCC1 [Cediranib] + CC1(C)CCC(c2ccc(Cl)cc2)=C(CN2CCN(c3ccc(C(=O)NS(=O)(=O)c4ccc(N[C@H](CCN5CCOCC5)CSc5ccccc5)c(S(=O)(=O)C(F)(F)F)c4)cc3)CC2)C1 [Navitoclax] (partner 0.5 µM)
In short: as §1

Cediranib + Alpelisib = compound: COc1cc2c(Oc3ccc4[nH]c(C)cc4c3F)ncnc2cc1OCCCN1CCCC1 [Cediranib] + Cc1nc(NC(=O)N2CCC[C@H]2C(N)=O)sc1-c1ccnc(C(C)(C)C(F)(F)F)c1 [Alpelisib] (partner 2 µM)
In short: as §1

Decitabine + AZD7762 = compound: Nc1ncn([C@H]2C[C@H](O)[C@@H](CO)O2)c(=O)n1 [Decitabine] + NC(=O)Nc1cc(-c2cccc(F)c2)sc1C(=O)N[C@H]1CCCNC1 [AZD7762] (partner 0.2 µM)
In short: as §1

Cell Line | relative viability (Decitabine + Olaparib; first compound 0.04 µM) | relative viability (Decitabine + Olaparib; first compound 0.1265 µM) | relative viability (Decitabine + Olaparib; first compound 0.4 µM) | relative viability (Decitabine + Olaparib; first compound 1.265 µM) | relative viability (Decitabine + Olaparib; first compound 4 µM) | relative viability (Cediranib + Navitoclax; first compound 0.04 µM) | relative viability (Cediranib + Navitoclax; first compound 0.1265 µM) | relative viability (Cediranib + Navitoclax; first compound 0.4 µM) | relative viability (Cediranib + Navitoclax; first compound 1.265 µM) | relative viability (Cediranib + Navitoclax; first compound 4 µM) | relative viability (Cediranib + Alpelisib; first compound 0.04 µM) | relative viability (Cediranib + Alpelisib; first compound 0.1265 µM) | relative viability (Cediranib + Alpelisib; first compound 0.4 µM) | relative viability (Cediranib + Alpelisib; first compound 1.265 µM) | relative viability (Cediranib + Alpelisib; first compound 4 µM) | relative viability (Decitabine + AZD7762; first compound 0.04 µM) | relative viability (Decitabine + AZD7762; first compound 0.1265 µM) | relative viability (Decitabine + AZD7762; first compound 0.4 µM) | relative viability (Decitabine + AZD7762; first compound 1.265 µM) | relative viability (Decitabine + AZD7762; first compound 4 µM)
NCI-H2009 | 0.475 | 0.261 | 0.322 | 0.215 | 0.293 | 1.2 | 1.14 | 1.16 | 1.14 | 1.11 | 1.18 | 1.13 | 1.09 | 1.16 | 1.14 | – | – | – | – | –
LCLC-103H | 0.688 | 0.69 | 0.498 | 0.491 | 0.742 | – | – | – | – | – | 1.03 | 1.08 | 0.98 | 0.932 | 0.917 | 0.746 | 0.728 | 0.649 | 0.639 | 0.551
NCI-H1299 | 0.963 | 0.962 | 0.884 | 0.655 | 0.578 | 1.07 | 1.02 | 1.03 | 1.07 | 1.08 | 1.09 | 1.03 | 1.01 | 1.04 | 1.14 | – | – | – | – | –
ChaGo-K-1 | 0.28 | 0.28 | 0.222 | 0.198 | 0.242 | 1.02 | – | 0.952 | 1.23 | 0.83 | – | – | – | – | – | 0.725 | 0.679 | 0.469 | 0.442 | 0.408
NCI-H522 | 0.544 | 0.564 | 0.544 | 0.548 | 0.47 | – | – | – | – | – | – | – | – | – | – | 0.819 | 0.692 | 0.571 | 0.567 | 0.591
ABC-1 | – | 0.616 | 0.77 | 0.473 | 0.573 | – | – | – | – | – | 1.06 | 1.01 | 1.04 | – | 1.07 | 0.668 | 0.814 | 0.712 | 0.701 | 0.84
IA-LM | 0.288 | 0.197 | 0.139 | 0.129 | 0.129 | 0.875 | 0.921 | 0.652 | 0.672 | 1.09 | 0.845 | 0.959 | 0.928 | 0.592 | 0.655 | – | – | – | – | –
COR-L23 | 0.166 | 0.181 | 0.177 | 0.143 | 0.119 | 0.966 | 1.14 | 0.893 | 0.922 | 1.03 | 0.916 | 0.788 | 0.816 | 0.829 | 0.815 | – | – | – | – | –
SW 900 | 0.563 | 0.365 | 0.329 | 0.228 | 0.208 | – | – | – | – | – | – | – | – | – | – | 0.502 | 0.646 | 0.39 | 0.237 | 0.298
SK-LU-1 | 0.274 | 0.244 | 0.214 | 0.247 | 0.253 | 1.1 | 0.999 | 0.859 | 0.654 | 1.04 | 0.753 | 1.2 | 0.958 | 0.933 | 1.01 | – | – | – | – | –
NCI-H1563 | – | – | – | – | – | – | – | – | – | – | 0.988 | 0.898 | 0.967 | 0.949 | 0.761 | – | – | – | – | –
NCI-H520 | 0.201 | 0.297 | 0.251 | 0.188 | 0.167 | 1.15 | – | 0.926 | 1.09 | 1.2 | 1.05 | – | 0.838 | 0.795 | 0.846 | – | – | – | – | –
NCI-H2342 | 0.539 | 0.368 | 0.433 | 0.351 | 0.249 | – | – | – | – | – | – | – | – | – | – | 0.507 | 0.593 | 0.517 | 0.457 | 0.319
